Source: ChEMBL document CHEMBL4373747 (ACS Med Chem Lett, 2020)

Columns and labels:
[1] = target: T1, Polyamine deacetylase HDAC10 (Homo sapiens, UniProt Q969S8); test: Inhibition of recombinant full length human HDAC10 expressed in baculovirus infected Sf9 cells using FAM-RHKK-Ac as substrate incubated for 17 hrs by electrophoretic mobility shift assay
T1 sequence (Q969S8 whole entry): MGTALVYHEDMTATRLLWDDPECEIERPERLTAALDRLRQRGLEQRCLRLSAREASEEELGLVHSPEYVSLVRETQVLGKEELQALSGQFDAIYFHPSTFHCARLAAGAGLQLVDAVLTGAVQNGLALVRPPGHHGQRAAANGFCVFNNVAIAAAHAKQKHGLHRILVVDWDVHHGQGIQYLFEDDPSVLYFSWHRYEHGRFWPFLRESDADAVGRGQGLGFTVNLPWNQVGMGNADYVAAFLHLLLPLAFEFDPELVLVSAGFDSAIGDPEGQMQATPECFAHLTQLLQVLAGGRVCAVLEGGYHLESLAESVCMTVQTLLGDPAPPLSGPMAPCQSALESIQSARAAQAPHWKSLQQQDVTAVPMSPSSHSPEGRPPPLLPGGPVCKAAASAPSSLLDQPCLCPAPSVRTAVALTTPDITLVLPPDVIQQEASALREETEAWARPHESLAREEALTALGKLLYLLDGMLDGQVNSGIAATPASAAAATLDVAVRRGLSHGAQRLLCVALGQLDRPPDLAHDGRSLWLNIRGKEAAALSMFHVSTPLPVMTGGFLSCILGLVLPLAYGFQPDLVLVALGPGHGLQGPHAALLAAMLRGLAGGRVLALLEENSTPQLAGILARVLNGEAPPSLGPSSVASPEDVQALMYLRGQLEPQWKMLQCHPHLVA

[2] = Intrinsic clearance in ICR/CD1 mouse hepatocytes at 1 uM measured upto 120 mins by LCMS analysis; format: ADME, cell-based, Hepatocyte; conditions: 2 h
Histone deacetylase 3 = Histone deacetylase 3 (Homo sapiens, UniProt O15379); test: Inhibition of recombinant full length human HDAC3 expressed in baculovirus infected Sf9 cells using FAM-RHKK-Ac as substrate incubated for 3 hrs by electrophoretic mobility shift assay
Sequence of Histone deacetylase 3 (O15379 whole entry): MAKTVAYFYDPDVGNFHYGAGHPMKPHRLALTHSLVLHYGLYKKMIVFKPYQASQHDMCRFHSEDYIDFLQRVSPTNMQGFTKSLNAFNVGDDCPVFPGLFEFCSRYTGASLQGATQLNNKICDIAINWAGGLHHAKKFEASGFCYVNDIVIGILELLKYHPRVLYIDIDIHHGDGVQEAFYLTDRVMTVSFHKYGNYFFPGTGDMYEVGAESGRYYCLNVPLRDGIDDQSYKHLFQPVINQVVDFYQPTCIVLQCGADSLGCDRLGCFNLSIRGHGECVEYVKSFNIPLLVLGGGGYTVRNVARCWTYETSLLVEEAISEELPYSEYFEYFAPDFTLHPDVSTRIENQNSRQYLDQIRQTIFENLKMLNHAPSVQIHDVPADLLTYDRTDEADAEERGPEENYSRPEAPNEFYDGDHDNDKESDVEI

Histone deacetylase 11 = target: T2, Histone deacetylase 11 (Homo sapiens, UniProt Q96DB2); test: Inhibition of recombinant full length human HDAC11 expressed in baculovirus infected Sf9 cells using FAM-RHKK-TFAc as substrate incubated for 17 hrs by electrophoretic mobility shift assay
T2 sequence (Q96DB2 whole entry): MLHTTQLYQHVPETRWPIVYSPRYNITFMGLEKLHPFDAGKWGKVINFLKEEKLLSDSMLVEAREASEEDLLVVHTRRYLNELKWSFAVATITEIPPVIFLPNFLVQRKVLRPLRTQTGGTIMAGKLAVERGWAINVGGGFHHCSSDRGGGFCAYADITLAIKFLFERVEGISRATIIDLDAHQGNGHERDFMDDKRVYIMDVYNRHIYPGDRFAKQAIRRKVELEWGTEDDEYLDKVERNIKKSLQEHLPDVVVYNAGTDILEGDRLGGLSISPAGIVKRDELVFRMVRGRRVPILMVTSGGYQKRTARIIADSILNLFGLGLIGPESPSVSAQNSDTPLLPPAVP

MV4-11 [3] = test: Induction of apoptosis in human MV4-11 cells assessed as late apoptotic cells at 1 uM incubated for 18 hrs by annexin V FITC and PI based flow cytometry (reference value: 9.2 to 9.63 %); format: functional
MDA-MB-231 = test: Cytotoxicity against human MDA-MB-231 cells assessed as reduction in cell viability incubated for 72 hrs by cell-titer blue assay; format: functional, cell-based; conditions: MDA-MB-231, 72 h
[4] = Cytotoxicity against human MRC9 cells assessed as reduction in cell viability incubated for 72 hrs by cell-titer blue assay; format: cell-based; conditions: MRC9, 72 h
MV4-11 [5] = test: Induction of apoptosis in human MV4-11 cells assessed as early apoptotic cells at 0.5 uM incubated for 18 hrs by annexin V FITC and PI based flow cytometry (reference value: 19.46 to 22.17 %); format: functional
MV4-11 [6] = test: Induction of apoptosis in human MV4-11 cells assessed as late apoptotic cells at 0.5 uM incubated for 18 hrs by annexin V FITC and PI based flow cytometry (reference value: 9.2 to 9.63 %); format: functional
[7] = Stability in ICR/CD1 mouse hepatocytes assessed as half life at 1 uM measured upto 120 mins by LCMS analysis; format: ADME, cell-based, Hepatocyte; conditions: 2 h
[8] = Oral bioavailability in CD-1 mouse at 20 mg/kg measured upto 24 hrs by LC/MS/MS analysis; format: ADME, organism-based; conditions: in vivo
MV4-11 [9] = test: Induction of apoptosis in human MV4-11 cells assessed as early apoptotic cells at 4 uM incubated for 18 hrs by annexin V FITC and PI based flow cytometry (reference value: 19.46 to 22.17 %); format: functional
Histone deacetylase 9 = Histone deacetylase 9 (Homo sapiens, UniProt Q9UKV0); test: Inhibition of recombinant human HDAC9 (604-1066 residues) expressed in baculovirus infected Sf9 cells using FAM-RHKK-TFAc as substrate incubated for 3 hrs by electrophoretic mobility shift assay
Sequence of Histone deacetylase 9 (Q9UKV0 whole entry, the tested form may be a part): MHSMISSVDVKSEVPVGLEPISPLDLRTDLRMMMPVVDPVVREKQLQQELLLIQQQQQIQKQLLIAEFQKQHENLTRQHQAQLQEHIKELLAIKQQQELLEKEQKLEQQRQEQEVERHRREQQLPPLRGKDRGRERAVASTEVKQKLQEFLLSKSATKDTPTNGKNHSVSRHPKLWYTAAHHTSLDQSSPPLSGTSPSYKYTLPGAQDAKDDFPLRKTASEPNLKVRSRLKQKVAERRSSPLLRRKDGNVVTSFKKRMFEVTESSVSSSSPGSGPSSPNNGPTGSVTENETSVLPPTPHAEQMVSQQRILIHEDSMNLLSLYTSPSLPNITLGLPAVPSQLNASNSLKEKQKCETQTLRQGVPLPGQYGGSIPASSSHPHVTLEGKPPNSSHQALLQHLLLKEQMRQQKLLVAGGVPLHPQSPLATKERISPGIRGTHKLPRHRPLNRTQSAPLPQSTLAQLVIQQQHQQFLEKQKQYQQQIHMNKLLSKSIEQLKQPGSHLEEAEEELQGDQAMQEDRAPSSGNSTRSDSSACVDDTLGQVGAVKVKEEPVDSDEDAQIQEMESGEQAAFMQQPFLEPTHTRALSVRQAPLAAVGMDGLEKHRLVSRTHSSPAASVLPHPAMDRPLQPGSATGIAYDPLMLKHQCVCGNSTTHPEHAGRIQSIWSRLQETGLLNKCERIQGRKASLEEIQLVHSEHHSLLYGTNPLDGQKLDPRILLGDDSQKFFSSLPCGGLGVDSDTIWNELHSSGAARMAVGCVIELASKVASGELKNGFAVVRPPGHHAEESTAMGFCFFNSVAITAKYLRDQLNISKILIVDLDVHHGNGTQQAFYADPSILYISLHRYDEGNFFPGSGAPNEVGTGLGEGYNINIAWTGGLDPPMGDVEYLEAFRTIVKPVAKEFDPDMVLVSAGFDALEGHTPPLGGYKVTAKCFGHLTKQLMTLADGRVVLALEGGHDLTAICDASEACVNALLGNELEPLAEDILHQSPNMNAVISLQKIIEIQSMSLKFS

[10] = Tmax in NSG mouse; format: ADME; conditions: in vivo
MV4-11 [11] = test: Cytotoxicity against human MV4-11 cells assessed as reduction in cell viability incubated for 72 hrs by cell-titer blue assay; format: functional, cell-based; conditions: MV4-11, 72 h
MV4-11 [12] = test: Induction of apoptosis in human MV4-11 cells assessed as viable cells at 0.25 uM incubated for 18 hrs by annexin V FITC and PI based flow cytometry (reference value: 53.01 to 53.07 %); format: functional; conditions: Homo sapiens, MV4-11, 18 h; read-out: Activity
MV4-11 [13] = test: Induction of apoptosis in human MV4-11 cells assessed as late apoptotic cells incubated for 18 hrs by annexin V FITC and PI based flow cytometry; format: functional, cell-based
[14] = Apparent permeability from apical to basolateral side in human Caco2 cells incubated for 2 hrs by LC/MS analysis; format: ADME, cell-based, Caco-2; conditions: Caco-2

## CC(C)(C)c1ccc(C(=O)Nc2ccc(C(=O)NO)cc2)cc1
[1]
  IC50: 0.899 µM
[2]
  CLH: 49.1 µL/min
Histone deacetylase 3
  IC50: 0.187 µM
Histone deacetylase 11
  IC50: > 1 µM
MV4-11 [3]
  Activity: 16.08%
MDA-MB-231
  IC50: > 25 µM
[4]
  IC50: 33.2 µM
MV4-11 [5]
  Activity: 20.69%
MV4-11 [6]
  Activity: 11.7%
[7]
  t1/2: 0.472 h
[8]
  bioavailability: 19.8%
MV4-11 [9]
  Activity: 32.14%
Histone deacetylase 9
  IC50: > 1 µM
[10]
  Tmax: 8 h
MV4-11 [11]
  IC50: 0.576 µM
MV4-11 [12]
  viability at 0.25 µM: 57.5%
MV4-11 [13]
  Activity: Dose-dependent effect
[14]
  Papp A→B at 2 h: 3.45 ×10⁻⁶ cm/s
